# From patent publication US9181290B2, “Inhibition of biofilm formation by 1,2,3,4,6-penta-O-galloyl-D-glucopyranose” (CHANG GUNG UNIVERSITY, priority 2011, dated 2015)
# Key:
# Enterococcus faecalis = experiment: Anti-biofilm activity (data not shown); type: cell-based
# S. aureus SA113 [1] = experiment: Scanning electron microscopy of cells on polycarbonate discs; type: cell-based, Staphylococcus aureus; conditions: 3.13 μM, 6 hrs
# Experimental: S. aureus SA113 cells were grown on polycarbonate discs in the presence or absence of 3.13 μM β-PGG. After 6 hours incubation, the discs were washed three times with PBS to remove planktonic cells and then prepared for SEM examination as described elsewhere (Guo-Xian Wei et al. (2006), supra). The samples thus prepared were observed using a Hitachi S-5000 scanning electron microscope.
# S. aureus SA113 [2] = experiment: Biofilm formation on β-PGG/polyaniline-coated silicon rubber discs (safranin staining); type: cell-based; conditions: Staphylococcus aureus, polyaniline carrier, 24 hrs
# Experimental: β-PGG (stock conc.: 8.89 μg/mL in DMSO) in various amounts was evenly mixed with a fixed amount of polyaniline (40 μL, 3 mg/mL in DMSO) so as to provide a 100 μL β-PGG/polyaniline mixture with a final β-PGG concentration of 0.47 μM, 0.94 μM, 1.89 μM, 3.78 μM, 4.73 μM or 5.67 μM. The resultant β-PGG/polyaniline mixture was coated on the inner surfaces of the wells of 96-well polystyrene microtiter plates in an amount of 100 μL per well. After β-PGG coating, the plates were dried in a vacuum chamber, followed by UV sterilization for 30 min. An overnight culture of S. aureus SA113 was 200-fold diluted with TSBg, and a 200 μL aliquot of the diluted culture was seeded into each well of the β-PGG-coated microtiter plates. After culturing at 37° C. for 24 hrs, the wells were washed twice with PBS, and then examined by safranin staining according to a method described earlier (Christine Heilmann et al. (1996), Infect. Immun., 64 (1):277-282), so as to quantify the amount of biofilm formed on the β-PGG-coated polystyrene surface.
# Meanwhile, 6-mm diameter silicon rubber discs, which were cut from a sheet of 2-mm thick silicon rubber with a paper punch, were also coated with the resultant β-PGG mixture in an amount of 100 μL per disc. […] After incubation at 37° C. for 24 hrs, each silicon rubber disc was subjected to safranin staining, so as to quantify the amount of biofilm formed thereon.
# S aureus SA113 = experiment: Bacterial attachment onto glass coverslips (data not shown); type: cell-based, Staphylococcus aureus
# [3] = system: icaA gene transcription in S. aureus SA113; experiment: icaA expression by real-time RT-PCR; type: cell-based, Staphylococcus aureus; conditions: concentrations below 50 μM, 5 hr treatment, normalized to gyrB
# Experimental: Bacterial cells were treated with 0.5 mg/mL lysostaphin (Sigma-Aldrich) at 37° C. for 15 min, and total bacterial mRNA was isolated and purified using a TRIzol reagent (Invitrogen) according to the manufacturer's instructions, followed by quantification of icaA expression by real-time RT-PCR (LightCycler, Roche, Mannheim, Germany). The icaA mRNA was reverse-transcribed and amplified using primers A1 (5′-[…]-3′) (SEQ ID NO:1) and B1 (5′-[…]-3′) (SEQ ID NO:2) that were designed based on the sequence of the icaA gene (Gene ID:3921484). […] Amplified PCR products were detected using a Light Cycler-RNA Amplification Kit Cyber Green 1 (Roche, Mannheim, Germany), starting with a cycle of denaturation at 95° C. for 5 min, then running for 45 cycles as follows: at 95° C. for 30 sec, 62° C. for 30 sec and 72° C. for 20 sec. To monitor the specificity of RT-PCR reaction, the PCR products were analyzed by melting curve analysis.
# To determine whether the β-PGG inhibition effected at the transcriptional level, total mRNAs were isolated from S. aureus SA113 cells after 5 hr treatment with β-PGG at various concentration (0, 3.13, 12.5 and 50 μM), and transcription of the icaA gene was analyzed by LightCycler quantitative RT-PCR.
compound,measurement,setting,value
"O=C(OC[C@H]1O[C@@H](OC(=O)c2cc(O)c(O)c(O)c2)[C@H](OC(=O)c2cc(O)c(O)c(O)c2)[C@@H](OC(=O)c2cc(O)c(O)c(O)c2)[C@@H]1OC(=O)c1cc(O)c(O)c(O)c1)c1cc(O)c(O)c(O)c1 [β-PGG, 1,2,3,4,6-penta-O-galloyl-β-D-glucopyranose]",anti-biofilm activity,Enterococcus faecalis,potent to mild anti-biofilm activity
same,web structure (likely PIA) on polycarbonate surface by SEM,S. aureus SA113 [1],caused the web structure to disappear
same,inhibition at 1.9 µM,S. aureus SA113 [2]; coating with 1.9 μM β-PGG,62%
same,inhibition at 5.7 µM,S. aureus SA113 [2]; coating with 5.7 μM β-PGG,85%
same,bacterial attachment onto glass coverslips,S aureus SA113,inhibited bacterial attachment onto glass coverslips
same,transcription of icaA,[3],did not influence the transcription of icaA
